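Five concentrations, 48 hours, 96-well plates. At the GI50, growth is halved.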 Calls of active or inactive are those of the source. Cut-off read from the data, not from the text of the source: active = GI50 up to about 1.1 µM and inactive = higher.
Columns and labels:
Experiment in all cases: DTP human tumour cell line panel, 48 h
[1] = system: TK-10
[2] = system: NCI-H522
[3] = system: KM12
[4] = system: SR
[5] = system: OVCAR-5
[6] = system: NCI-H23
[7] = system: KM-20L2
[8] = system: UO-31
[9] = system: Malme-3M
[10] = system: ACHN
[11] = system: HCT-116
[12] = system: HT-29
[13] = system: SK-MEL-2
[14] = system: LOX IMVI
[15] = system: M14
[16] = system: HCC 2998
[17] = system: DLD-1
[18] = system: K562
[19] = system: OVCAR-3
[20] = system: SK-MEL-5
[21] = system: SF-268
[22] = system: CCRF-CEM
[23] = system: HOP-92
[24] = system: HOP-18
[25] = system: SK-MEL-28
[26] = system: SK-OV-3
[27] = system: EKVX
[28] = system: XF498
[29] = system: OVCAR-8
[30] = system: RXF 631
[31] = system: SN12C
[32] = system: IGROV-1
[33] = system: UACC-62
[34] = system: A498
[35] = system: SF-539
[36] = system: SW-620
[37] = system: COLO 205
[38] = system: U-251
[39] = system: M19-MEL
[40] = system: NCI-H460
[41] = system: HCT-15
[42] = system: UACC-257
[43] = system: DMS-114
[44] = system: OVCAR-4
[45] = system: DMS-273
[46] = system: HL-60
[47] = system: SNB-19
[48] = system: SNB-78
[49] = system: SF-295
[50] = system: HOP-62
[51] = system: RPMI-8226
[52] = system: A549
[53] = system: LXFL 529
[54] = system: NCI-H226
[55] = system: MOLT-4
[56] = system: SNB-75
[57] = system: 786-0
[58] = system: CAKI-1

## CN(C)CCC[N+]1=Nc2cccc3cccc(c23)N1
[1]
  GI50: 59.4 µM (inactive)
[2]
  GI50: 38 µM (inactive)
[3]
  GI50: > 100 µM (inactive)
[4]
  GI50: 16.9 µM (inactive)
[5]
  GI50: > 100 µM (inactive)
[6]
  GI50: > 100 µM (inactive)
[7]
  GI50: 23.7 µM (inactive)
[8]
  GI50: 96.4 µM (inactive)
[9]
  GI50: > 100 µM (inactive)
[10]
  GI50: 50.7 µM (inactive)
[11]
  GI50: 44.6 µM (inactive)
[12]
  GI50: 33.6 µM (inactive)
[13]
  GI50: > 100 µM (inactive)
[14]
  GI50: 31.9 µM (inactive)
[15]
  GI50: 21.1 µM (inactive)
[16]
  GI50: 24.2 µM (inactive)
[17]
  GI50: 17.5 µM (inactive)
[18]
  GI50: 31.8 µM (inactive)
[19]
  GI50: > 100 µM (inactive)
[20]
  GI50: 14.1 µM (inactive)
[21]
  GI50: > 100 µM (inactive)
[22]
  GI50: 29.9 µM (inactive)
[23]
  GI50: 66.7 µM (inactive)
[24]
  GI50: > 100 µM (inactive)
[25]
  GI50: 56.2 µM (inactive)
[26]
  GI50: > 100 µM (inactive)
[27]
  GI50: > 100 µM (inactive)
[28]
  GI50: > 100 µM (inactive)
[29]
  GI50: 46.6 µM (inactive)
[30]
  GI50: > 100 µM (inactive)
[31]
  GI50: 85.1 µM (inactive)
[32]
  GI50: 31.4 µM (inactive)
[33]
  GI50: 34.1 µM (inactive)
[34]
  GI50: 27.4 µM (inactive)
[35]
  GI50: 99.5 µM (inactive)
[36]
  GI50: 10.4 µM (inactive)
[37]
  GI50: > 10 µM (inactive)
[38]
  GI50: 60 µM (inactive)
[39]
  GI50: 48.2 µM (inactive)
[40]
  GI50: 35.6 µM (inactive)
[41]
  GI50: 39.3 µM
[42]
  GI50: 48.5 µM (inactive)
[43]
  GI50: 60.3 µM (inactive)
[44]
  GI50: 47.1 µM (inactive)
[45]
  GI50: 18.8 µM (inactive)
[46]
  GI50: 18.2 µM (inactive)
[47]
  GI50: > 100 µM (inactive)
[48]
  GI50: > 100 µM (inactive)
[49]
  GI50: > 100 µM (inactive)
[50]
  GI50: > 100 µM (inactive)
[51]
  GI50: 22.8 µM (inactive)
[52]
  GI50: > 100 µM (inactive)
[53]
  GI50: 49.8 µM (inactive)
[54]
  GI50: > 100 µM (inactive)
[55]
  GI50: 24.4 µM (inactive)
[56]
  GI50: > 100 µM (inactive)
[57]
  GI50: 49.8 µM (inactive)
[58]
  GI50: 37.1 µM (inactive)

— ChEMBL document CHEMBL1201862, “PubChem BioAssay data set” (2004)
